Data as given in ChEMBL document CHEMBL5030514, “Discovery of Anti-TNBC Agents Targeting PTP1B: Total Synthesis, Structure-Activity Relationship, In Vitro and In Vivo Investigations of Jamunones” (J Med Chem, 2021).
The source made the active and inactive calls. The rule behind the calls is not given here.

What was measured:
[1] = test system: MCF7; experiment: Cytotoxicity against human MCF-7 cells measured by MTT assay; assay type: functional, cell-based
[2] = Selective index, ratio of IC50 for human 293T cells to IC50 of MDA-MB-231 cells; assay type: toxicity; settings: 293T cells versus MDA-MB-231 cells, read-out: Selectivity Index
[3] = Selective index, ratio of IC50 for HUVEC cells to IC50 of MDA-MB-231 cells; assay type: toxicity; settings: human, HUVEC cells versus MDA-MB-231 cells; read-out: Selectivity Index
[4] = test system: MDA-MB-231; experiment: Antiproliferative activity against human MDA-MB-231 cells assessed as effect on cell viability at 0.56-5 uM for 24 hrs measured by MTT assay; assay type: functional, cell-based
[5] = test system: MDA-MB-231; experiment: Induction of mitochondrial apoptosis in human MDA-MB-231 cells assessed as chromatin shrinkage by Hoechst 33258 staining based fluorescence microscopic assay; assay type: functional, cell-based
[6] = test system: MDA-MB-231; experiment: Induction of mitochondrial apoptosis in human MDA-MB-231 cells assessed as membrane blebbing by Hoechst 33258 staining based fluorescence microscopic assay; assay type: functional, cell-based
[7] = test system: MCF7; experiment: Induction of mitochondrial apoptosis in human MCF-7 cells assessed as chromatin shrinkage by Hoechst 33258 staining based fluorescence microscopic assay; assay type: functional, cell-based
[8] = test system: MDA-MB-231; experiment: Induction of mitochondrial apoptosis in human MDA-MB-231 cells assessed as total apoptotic cells by fluorescein isothiocyanate -annexin V/PI double staining based flow cytometric analysis (reference value: 3.5%); assay type: functional
[9] = test system: MCF7; experiment: Induction of mitochondrial apoptosis in human MCF-7 cells assessed as total apoptotic cells by fluorescein isothiocyanate -annexin V/PI double staining based flow cytometric analysis (reference value: 4.4%); assay type: functional
[10] = test system: MDA-MB-231; experiment: Induction of mitochondrial apoptosis in human MDA-MB-231 cells assessed as decrease in mitochondrial membrane potential levels at 5 uM measured after 24 hrs by flow cytometry; assay type: functional; parameters: scale not given: the % may be the effect or the level left
[11] = test system: MDA-MB-231; experiment: Induction of apoptosis in human MDA-MB-231 cells assessed as increase in Bax protein expression at 0.56 to 5 uM measured after 24 hrs by Western blot analysis; assay type: functional, cell-based; settings: dose 0.56-5 µM
[12] = test system: MDA-MB-231; experiment: Induction of apoptosis in human MDA-MB-231 cells assessed as increase in production of cleaved caspase-3 at 0.56 to 5 uM measured after 24 hrs by Western blot analysis; assay type: functional, cell-based; settings: dose 0.56-5 µM
[13] = test system: MCF7; experiment: Induction of apoptosis in human MCF-7 cells assessed as decrease in Bcl-2 level at 1.67 to 15 uM measured after 24 hrs by Western blot analysis; assay type: functional, cell-based; settings: dose 1.67-15 µM
[14] = test system: MCF7; experiment: Induction of apoptosis in human MCF-7 cells assessed as upregulation of cleaved poly(ADP-ribose) polymerase level at 1.67 to 15 uM measured after 24 hrs by Western blot analysis; assay type: functional, cell-based; settings: dose 1.67-15 µM
[15] = test system: MDA-MB-231; experiment: Cell cycle arrest in human MDA-MB-231 cells assessed as accumulation of cells at G0/G1 phase at 5 uM measured after 24 hrs by propidium iodide staining based flow cytometry (reference value: 44%); assay type: functional
[16] = test system: MCF7; experiment: Cell cycle arrest in human MCF-7 cells assessed as accumulation of cells at G0/G1 phase at 15 uM measured after 24 hrs by propidium iodide staining based flow cytometry (reference value: 51.7%); assay type: functional
[17] = test system: MDA-MB-231; experiment: Cell cycle arrest in human MDA-MB-231 cells assessed as downregulation of cyclin D3 expression by Western blot analysis; assay type: functional, cell-based
[18] = test system: MDA-MB-231; experiment: Cell cycle arrest in human MDA-MB-231 cells assessed as downregulation of CDK4 expression by Western blot analysis; assay type: functional, cell-based
[19] = test system: MDA-MB-231; experiment: Cell cycle arrest in human MDA-MB-231 cells assessed as upregulation of p21 level by Western blot analysis; assay type: functional, cell-based
[20] = test system: MCF7; experiment: Cell cycle arrest in human MCF-7 cells assessed as downregulation of cyclin D3 expression by Western blot analysis; assay type: functional, cell-based
[21] = test system: MCF7; experiment: Cell cycle arrest in human MCF-7 cells assessed as downregulation of CDK2 expression by Western blot analysis; assay type: functional, cell-based
[22] = test system: MCF7; experiment: Cell cycle arrest in human MCF-7 cells assessed as downregulation of CDK4 expression by Western blot analysis; assay type: functional, cell-based
[23] = test system: MDA-MB-231; experiment: Inhibition of PTP1B expression in human MDA-MB-231 cells by Western blot analysis; assay type: functional, cell-based
[24] = test system: MCF7; experiment: Inhibition of PTP1B expression in human MCF7 cells by Western blot analysis; assay type: functional, cell-based
[25] = test system: MDA-MB-231; experiment: Effect on Akt expression in human MDA-MB-231 cells by Western blot analysis; assay type: functional, cell-based
[26] = test system: MDA-MB-231; experiment: Inhibition of PI3K p85 phosphorylation in human MDA-MB-231 cells by Western blot analysis; assay type: cell-based
[27] = test system: MDA-MB-231; experiment: Inhibition of PI3K in human MDA-MB-231 cells assessed as Akt phosphorylation by Western blot analysis; assay type: cell-based
[28] = test system: MDA-MB-231; experiment: Antitumour activity against human MDA-MB-231 cells xenografted in BALB/c nude mouse assessed as tumour growth inhibition at 15 mg/kg, ip administered once for every other day for 20 days relative to control; assay type: functional; settings: MDA-MB-231, ip, 480 h, time 20 day, read-out: TGI
[29] = test system: MDA-MB-231; experiment: Antitumour activity against human MDA-MB-231 cells xenografted in BALB/c nude mouse assessed as tumour growth inhibition at 30 mg/kg, ip administered once for every other day for 20 days relative to control; assay type: functional; settings: MDA-MB-231, ip, 480 h, time 20 day, read-out: TGI
[30] = Toxicity in human MDA-MB-231 cells xenografted in BALB/c nude mouse assessed as change in body weight at 15 to 30 mg/kg, ip administered once for every other day for 20 days relative to control; assay type: organism-based; settings: in vivo, 480 h, dose 15-30 mg/kg, time 20 day
[31] = test system: MDA-MB-231; experiment: Antitumour activity against human MDA-MB-231 cells xenografted in BALB/c nude mouse assessed as upregulation of Bax level by western blot; assay type: functional, cell-based
[32] = test system: MDA-MB-231; experiment: Antitumour activity against human MDA-MB-231 cells xenografted in BALB/c nude mouse assessed as upregulation of cleaved caspase-3 level at 15 to 30 mg/kg, ip administered once for every other day for 20 days by Western blot analysis; assay type: functional, organism-based; settings: dose 15-30 mg/kg, time 20.0 day
[33] = test system: MDA-MB-231; experiment: Antitumour activity against human MDA-MB-231 cells xenografted in BALB/c nude mouse assessed as upregulation of cleaved poly(ADP-ribose) polymerase level at 15 to 30 mg/kg, ip administered once for every other day for 20 days by Western blot analysis; assay type: functional, organism-based; settings: dose 15-30 mg/kg, time 20.0 day
[34] = test system: MCF7; experiment: Inhibition of PI3K in human MCF7 assessed as Akt phosphorylation by Western blot analysis
[35] = test system: MDA-MB-231; experiment: Induction of mitochondrial apoptosis in human MDA-MB-231 cells assessed as viable cells at 5 uM measured after 24 hrs by FITC -annexin V/PI double staining based flow cytometric analysis (Rvb =94.3%); assay type: functional; settings: read-out: Activity
[36] = test system: MCF7; experiment: Induction of mitochondrial apoptosis in human MCF7 cells assessed as early apoptotic cells at 15 uM measured after 24 hrs by FITC -annexin V/PI double staining based flow cytometric analysis (reference value: 3.3%); assay type: functional
[37] = test system: MCF7; experiment: Induction of mitochondrial apoptosis in human MCF7 cells assessed as late apoptotic cells at 15 uM measured after 24 hrs by FITC -annexin V/PI double staining based flow cytometric analysis (reference value: 1.1%); assay type: functional
[38] = test system: MCF7; experiment: Induction of mitochondrial apoptosis in human MCF7 cells assessed as early apoptotic cells at 15 uM measured after 24 hrs by FITC -annexin V/PI double staining based flow cytometric analysis (reference value: 2.4%); assay type: functional

CCCC/C=C/CCCCCCCCCC1(O)CC(=O)c2c(O)c(C)c(O)c(C)c2O1 (stereo not drawn)
IC50 [1]: 17.5 µM
selectivity ratio [2]: 5.35
selectivity ratio [3]: 6.78
Activity [4]: inactive
Activity [5]: Active
Activity [6]: Active
Activity [7]: Active
Activity [8]: 11.8%
Activity [9]: 13.6%
Activity [10]: 62.2%
Activity [11]: Dose-Dependent Effect
Activity [12]: Dose-Dependent Effect
Activity [13]: Dose-Dependent Effect
Activity [14]: Active
Activity [15]: 62.4%
Activity [16]: 66.8%
Activity [17]: Dose-Dependent Effect
Activity [18]: Dose-Dependent Effect
Activity [19]: Dose-Dependent Effect
Activity [20]: Dose-Dependent Effect
Activity [21]: Dose-Dependent Effect
Activity [22]: Dose-Dependent Effect
Activity [23]: Active
Activity [24]: Active
Activity [25]: inactive
inhibition [26]: Dose-Dependent Effect
inhibition [27]: Dose-Dependent Effect
inhibition in vivo at 15 mg/kg [28]: 53.6%
inhibition in vivo at 30 mg/kg [29]: 79.3%
Activity [30]: Not Active
Activity [31]: Active
Activity [32]: Active
Activity [33]: Active
inhibition [34]: Dose-Dependent Effect
viability at 5 µM [35]: 82%
Activity [36]: 4.7%
Activity [37]: 8.9%
Activity [38]: 7.8%
